Columns and labels:
[1] = target: Low molecular weight phosphotyrosine protein phosphatase (Homo sapiens) (UniProt P24666); test: Competitive inhibition of human GST-tagged LMW-PTP-B expressed in Escherichia coli JM 109 cells using p-nitrophenyl phosphate as substrate after 15 mins by microplate reader analysis
[2] = target: Low molecular weight phosphotyrosine protein phosphatase (Homo sapiens) (UniProt P24666); test: Competitive inhibition of LMW-PTP-B (unknown origin)
[3] = target: Low molecular weight phosphotyrosine protein phosphatase (Homo sapiens) (UniProt P24666); test: Uncompetitive inhibition of human GST-tagged LMW-PTP-B expressed in Escherichia coli JM 109 cells using p-nitrophenyl phosphate as substrate after 15 mins by microplate reader analysis

Sequence of Low molecular weight phosphotyrosine protein phosphatase (Homo sapiens) (P24666 whole entry, looked up): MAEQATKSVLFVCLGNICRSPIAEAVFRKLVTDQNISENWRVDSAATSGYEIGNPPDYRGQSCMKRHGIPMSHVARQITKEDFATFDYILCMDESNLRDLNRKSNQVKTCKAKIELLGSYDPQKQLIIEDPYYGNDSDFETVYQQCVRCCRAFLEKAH

SMILES | Kis [1] | other results
O=c1cc(-c2ccc(O)cc2)oc2c(O)c(O)c(O)c(O)c12 | 18.8 µM | –
CC[C@@]1(O)C(=O)OCc2c1cc1n(c2=O)Cc2cc3c(NC(=O)CN)cccc3nc2-1 | 538 µM | –
N=C(N)n1c(N)nc2ccccc2c1=O | 1180 µM | –
CC(C)c1nc2c(=O)n(C)c(=O)n(C)c2[nH]1 | > 450 µM | –
O=c1oc2c(cc1O)oc(=O)c1cc(O)c(O)c(O)c12 | 10.8 µM | –
O=c1c(O)cccc2cc(O)c(O)c(O)c12 | 10.4 µM | –
O[C@@H]1[C@H](OCc2ccccc2)OC[C@@H](O)[C@H]1O | > 450 µM | –
CCCCSc1cc(C)nc(N)n1 | > 450 µM | –
O=C(O)c1ccc(N2CCCCC2)cc1O | > 450 µM | –
Nc1nc(SCc2ccccn2)c2ncn([C@@H]3O[C@H](CO)[C@@H](O)[C@H]3O)c2n1 | > 450 µM | –
O=Cc1c[nH]c2ncccc12 | 7190 µM | –
COc1ccc2nc3cc(Cl)ccc3c(C#N)c2c1 | > 450 µM | –
O=C(O)/C=C/C(=O)N1Cc2cc3ccccc3nc2C1 | 493 µM | –
Nc1o[nH]c(=O)c1C1CCCCC1 | > 450 µM | –
CC(C)(C)c1ccc(OCC(=O)O)cc1 | > 450 µM | –
C[C@@H]1O[C@@H](Oc2c(-c3cc(O)c(O)c(O)c3)oc3cc(O)cc(O)c3c2=O)[C@H](O)[C@H](O)[C@H]1O | > 126 µM | –
OCC(O)C1OCOC(C(O)CO)C1O (stereo not given) | > 450 µM | –
O=C(O)C1OCC2(CO1)COC(C(=O)O)OC2 (stereo not given) | > 450 µM | –
Cc1ccc([N+](=O)[O-])cc1NC(=O)Nc1ccc(S(N)(=O)=O)cc1 | 2230 µM | –
Nc1nc2c[nH]c(N)nc-2n1 | 31.7 µM | –
Cc1ncc(COP(=O)(O)O)c(C=O)c1O | 3.73 µM | Kis [2]: 7.6 µM
O=C(/C=C/c1ccc(O)c(O)c1)OC1[C@@H](O)CC(OC(=O)/C=C/c2ccc(O)c(O)c2)(C(=O)O)C[C@@H]1O (stereo not given in full) | 635 µM | –

SMILES | Kis [1] | other results
Cn1c(=O)c2nc(CNc3ccc(C(=O)O)cc3)[nH]c2n(C)c1=O | 1560 µM | –
O=C1c2ccccc2C(=O)c2[nH]cnc21 | – | Kii [3]: 7.97 µM
O=C(O)CCNC1CCCCC1 | 3300 µM | –
Nc1nc(N)c(/N=N/c2ccc(S(N)(=O)=O)cc2)c(O)n1 | 128 µM | –
O=C(O)c1ccc2c(c1Nc1ccccc1)C(=O)c1ccccc1C2=O | 161 µM | –
CC1=C[C@H](O)[C@@H](O)[C@]2(C)[C@H]3[C@@]4(O)OC[C@]35[C@H]([C@@H](C)[C@H]4O)[C@@H](O)C(=O)O[C@@H]5C[C@@H]12 | > 450 µM | –
COc1ccc(C(=O)O)nc1C | 2780 µM | –
Nc1nc(N)c(/N=N/c2ccc(SCC(=O)O)cc2)c(O)n1 | 730 µM | –
Cc1c2cc(O)c(=O)cc-2oc2cc(O)c(O)cc12 | 13.5 µM | Kii [3]: 31.7 µM
O=C(O)Cc1ccc(/N=N/c2c(O)c(C(=O)O)cc3ccccc23)cc1 | 33.5 µM | –
CCO[C@H]1CCc2c(C)nc(N)nc2S1 | – | Kii [3]: 122 µM
O=C(O)c1nn(-c2ccccc2-c2nnc(O)nc2O)c(=O)[nH]c1=O | 1650 µM | –
Cc1cccc(C)c1NC(=O)Nc1ccc(S(N)(=O)=O)cc1 | 1760 µM | –
Oc1cc(-c2nn[nH]n2)nc(O)n1 | > 450 µM | –
Cn1c(=O)c2nc(COc3ccc(C(C)(C)C)cc3)[nH]c2n(C)c1=O | > 450 µM | –
Nc1nc(N)nc([C@@H]2C=CCCC2)n1 | > 450 µM | –
c1ccc(CSc2nc3c[nH]cnc-3n2)cc1 | > 450 µM | –
Cc1cc(C)c2c(SC(C)C)nc(N)nc2n1 | 925 µM | –
Cc1cccc(N=C(S)Nc2cccc(C)n2)n1 | > 450 µM | –
COC(=O)[C@@H]1[C@H](O)[C@H](C)[C@H](O)[C@H](C)/C=C\C=C(/C)C(=O)Nc2c(C)c(OC(C)=O)c3c(c2O)C(=O)C(C)=C2OCOC(=C23)/C(C)=C/[C@@](C)(O)[C@H](O)[C@@H](C)[C@H]1O | 93.9 µM | –
O=C(O)CCCC[C@@H]1SC[C@@H]2NC(=O)N[C@@H]21 | 2330 µM | –

— ChEMBL document CHEMBL2434938, “Identification of new inhibitors for low molecular weight protein tyrosine phosphatase isoform B” (Bioorg Med Chem Lett, 2013)
